In patent publication US20050220779A1, “Integrin linked kinase modulation of macrophage activation” (priority 2001, published 2005):

Key:
[1] = target: T1, integrin linked kinase (full-length recombinant GST-ILK) (Homo sapiens, UniProt Q13418); experiment: ILK kinase inhibition assay (phosphocellulose filter, scintillation counting); type: biochemical
T1 construct: The target integrin linked kinase is a full-length recombinant protein expressed in sF9 insect cells; made in house; host or cells: baculovirus; virus amplified in Sf9, protein expressed in Hi5 insect cells
T1 sequence (Q13418 1-452): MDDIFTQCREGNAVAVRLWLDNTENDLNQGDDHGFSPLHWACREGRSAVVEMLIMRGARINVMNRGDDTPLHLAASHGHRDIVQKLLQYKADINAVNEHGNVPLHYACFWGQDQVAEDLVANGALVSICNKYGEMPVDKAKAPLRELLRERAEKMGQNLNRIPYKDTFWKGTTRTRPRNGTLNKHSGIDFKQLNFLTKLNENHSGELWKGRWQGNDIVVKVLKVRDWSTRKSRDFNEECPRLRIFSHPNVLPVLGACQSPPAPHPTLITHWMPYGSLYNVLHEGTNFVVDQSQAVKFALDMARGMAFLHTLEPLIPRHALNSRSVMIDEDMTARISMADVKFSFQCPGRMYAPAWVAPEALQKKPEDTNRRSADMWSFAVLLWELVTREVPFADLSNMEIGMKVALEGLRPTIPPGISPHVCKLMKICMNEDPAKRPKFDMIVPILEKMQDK
Experimental: Inhibition Assay: Compounds were received in lyophilized form and stored at −20° C. Stock solutions were made by weighing out the compounds and dissolving them in dimethyl sulfoxide (DMSO) to a standard concentration, usually 20 mM, and stored at −20° C. […] Diluted 100% DMSO was used as a negative control.
5 μl of each compound dilution were robotically pipetted to Costar serocluster plates maintaining the same plate format. All assays consisted of the following volumes: • 5 μl diluted compound • 10 μl enzyme preparation • 5 μl substrate • 5 μl assay ATP and were then incubated 15 min at room temperature.
From each reaction, 10 μl of reaction mix was spotted onto Millipore Multiscreen-PH opaque plates and washed 2×10 min in 1% phosphoric acid. The plates were dried for at 40° C. for 30 min, then the substrate phosphate complexes were quantitated by scintillation counting. These Millipore plates are in a 96 well format with immobilized P81 phosphocellulose membranes. Both the phosphorylated and non-phosphorylated form of the substrate bind to the membrane while ATP (unincorporated phosphate) is removed in the subsequent wash steps.
Integrin Linked Kinase: The target integrin linked kinase is a full-length recombinant protein expressed in sF9 insect cells by baculovirus infection. The ILK1 substrate is […]-amide.
Recombinant ILK protein was expressed using cultured insect cells and a baculovirus expression system.
A large scale plasmid preparation of the resulting transfer construct was made using a Qiagen Plasmid Midi Kit. This ILK transfer construct was then co-transfected with BaculoGold DNA (Pharmingen) into Sf9 insect cells (Invitrogen) and a high titre preparation of GST-ILK recombinant baculovirus was produced by amplification in Sf9 cells. Liter scale expression of GST-ILK recombinant protein was done in 1000 ml spinner flasks (Bellco) by infection of Hi5 insect cells (invitrogen) grown in Ex-Cell 400 Serum Free Media (JRH Biosciences) at a multiplicity of infection of approximately 5. The cells were harvested three days after infection and lysed in Hypotonic Lysis Buffer (HLB; 10 mM imidazole, 5 mM EDTA, 0.1% β-mercaptoethanol, 10 ug/ml PMSF, 1 mM benzamidine) by sonication. The lysate was centrifuged at 10,000×g for 20 min and the supernatant was discarded. The pellet was washed twice in HLB and then washed twice in High Salt Buffer (HSB; 500 mM NaCl, 10 mM imidazole, 5 mM EDTA, 0.1% β-mercaptoethanol, 10 ug/mI PMSF, 1 mM benzamidine). The pellet was then resuspended in DNAse-ATP Buffer (DAB; 10 mM MgCl2, 1 mM MnCl2, β-methyl aspartic acid, 2 mM NaF, 0.55 mg/ml ATP, 1 ug/ml DNAse l, 1% NP-40, 10 mM imidazole, 5 mM EDTA, 0.1% β-mercaptoethanol, 10 ug/ml PMSF, 1 mM benzamidine) and stirred for 30 min at room temperature, and then centrifuged at 10,000×g for 20 min. The pellet was resuspended in High Salt Detergent buffer (HDB; 1% NP-40, 1% Triton X-100, 500 mM NaCl, 10 mM imidazole, 5 mM EDTA, 0.1% β-mercaptoethanol, 10 ug/ml PMSF, 1 mM benzamidine), stirred for 30 min at room temperature, and then centrufuged at 10,000×g for 20 min. The pellet was then washed once in each of HDB, HSB, and HLB, centrifuging at 10,000×g each time. Finally, the pellet was resuspended in HLB.

[2] = system: BALB/c cells (primary peritoneal macrophages); experiment: Cell survival by crystal violet staining, BALB/c cells; type: cell-based; settings: 24 h, 50 μM
Experimental: Treatment of primary macrophages and RAW 264.7 cells. […] Following 3 h incubation, at 37 C, 5% CO2 (macrophages were allowed to attach) cells were stimulated with LPS (0.5 μg/ml) and IFN-γ (100 U/ml) in the absence or presence of various concentrations of ILK inhibitors (all treatments were replicated six times). Cells were incubated for an additional 24 h, and cell free culture supernatants from each well were collected for NO and cytokine determination. The remaining cells were stained with crystal violet to determine effect of the inhibitors on cell survival.
Effect of ILK Inhibitors on suppression of NO production and cell survival. Twenty-four hours following treatment with the ILK inhibitors, aliquots from the cell-free supernatants were assayed for NO and IL-6 release. Surviving cells were stained and fixed (crystal violet 0.05% in 20% ethanol), to determine if the decrease in NO production was related to a decrease in cell number due to toxicity of the compounds.

SMILES	inhibition at 0.1 µM ([1]; 0.1 μM, corrected against the maximum observed inhibition) [%]	inhibition at 0.3 µM ([1]; 0.3 μM, corrected against the maximum observed inhibition) [%]	inhibition at 0.7 µM ([1]; 0.7 μM, corrected against the maximum observed inhibition) [%]	inhibition at 1.6 µM ([1]; 1.6 μM, corrected against the maximum observed inhibition) [%]	inhibition at 4.1 µM ([1]; 4.1 μM, corrected against the maximum observed inhibition) [%]	inhibition at 10.2 µM ([1]; 10.2 μM, corrected against the maximum observed inhibition) [%]	inhibition at 25.6 µM ([1]; 25.6 μM, corrected against the maximum observed inhibition) [%]	inhibition at 64 µM ([1]; 64.0 μM, corrected against the maximum observed inhibition) [%]	inhibition at 160 µM ([1]; 160.0 μM, corrected against the maximum observed inhibition) [%]	inhibition at 400 µM ([1]; 400.0 μM, corrected against the maximum observed inhibition) [%]	Survival (%) ([2]; BALB/c, mouse)	inhibits ILK at [1] [µM]	Survival (%) ([2]; BALB/c cells, DMSO-treated = 100%)
N=C(N)N/N=C/c1ccc(Cl)cc1Cl [KP-16735]	13	-1	4	18	32	69	85	99	102	99	73	–	–
Oc1ccc2c(c1)CC1NCCc3cc(O)c(O)c-2c31 (stereo not shown) [KP-21849, 5,6,6a,7-Tetrahydro-4H-dibenzo[de,g]quinoline-1,2,9-triol]	–	–	–	–	–	–	–	–	–	–	–	2	41
